According to patent US9708338B2, “Aromatic heterocyclylamine derivative having TRPV4-inhibiting activity” (Shionogi & Co., Ltd., priority 2013, dated 2017):

What was measured:
human TRPV4 [1] = biological target: T1, human TRPV4 (Homo sapiens, UniProt Q9HBA0); assay: Test Example 1 Measurement of TRPV4 inhibitory activity (IC50 value); assay type: cell-based; conditions: CHO-K1 cells stably expressing human TRPV4; Fluo 4-AM, FLIPR TETRA; final 1 μmol/L 4α-PDD
T1 construct: expressed in transfected cells; host or cells: CHO-K1
Protocol: (§1) For each compound, TRPV4 inhibitory activity was measured using cells. (Method) TRPV4 inhibitory activity of the compound was evaluated in accordance with the following procedure.
(§2) (1) The TRPV4 inhibitory activity was measured using CHO-K1 cells stably expressing human TRPV4.
(2) In the day before the experimental day, frozen cell were thawed and washed with the culture medium (MEM-α, 10% FBS, 2 mmol/L GlutaMax, 50 unit Penicillin, 50 μg/mL Streptomycin, 20 mmol/L HEPES). Then cells were suspended in the culture medium.
(3) The 384-well plates which hTRPV4/CHO cells were seeded at densities of 4000 cells/well in the culture medium and cultured in a CO2 incubator in the presence of 5% CO2 at 37° C. for overnight was used as assay plates.
(4) The assay plate was washed with assay buffer (Hanks, 20 mmol/L HEPES, 2.5 mmol/L probenecid, pH 7.4), and the buffer were remained at 20 μL/well.
(5) 10 μl of dye loading buffer (9 μmol/L Fluo 4-AM, 0.09% Pluronic F-127/assay buffer) was added to each well, then the assay plate was incubated in a CO2 incubator in the presence of 5% CO2 at 37° C. for one hour (final 3 μmol/L Fluo4-AM).
(6) The assay plate was washed with the assay buffer, and the buffers were remained at 20 μL/well. Then the assay plate was incubated for 10 min at room temperature.
(7) 20 μL/well of diluted compound solution was dispensed to each well in the compound plate, and mixed with built-in Pipette and Mixer of the Fluorescence analysis system FLIPR TETRA (Molecular devices).
(8) After incubation for 5 min, 20 μL/well of 4α-PDD solution were applied to each well of assay plate and mixed with the FLIPR TETRA (final 1 μmol/L 4α-PDD).
(9) The fluorescent intensity was measured with FLIPR TETRA system for 5 min from the point of time addition the compound solution, at Ex 470-495 nm, Em 515-575 nm wavelength.
(§3) In addition, TRPV4 inhibitory activity (IC50 value) of a compound was evaluated according to the following procedure.
(§4) (10) In the presence of the compound, the difference between maximal and minimal of fluorescent intensity value for 5 min from just before addition of 4α-PDD solution was calculated, and it was referred as Max−Min value. Max−Min value of the compound A at 1 μmol/L was defined as 100% inhibitory activity, Max−Min value in the absence of the compound was defined as 0% inhibitory activity. The TRPV4 inhibitory activity of the compound was calculated by the following formula. Inhibition ratio=(1−(Max−Min value of the compound−100% inhibitory activity)/(0% inhibitory activity−100% inhibitory activity))×100
Herein, the compound A is the compound I-186 described in PCT/JP2013/058722.
(11) Inhibitory activity was calculated at 10 points with three fold serial dilution, in the final concentration of the compound from 10 μmol/L to 0.5 nmol/L, the IC50 value (nmol/L) was calculated by logistic approximation method.

human TRPV4 [2] = biological target: T1, human TRPV4; assay: Test Example 2 Measurement of TRPV4 inhibitory activity (IC50 value); assay type: cell-based; conditions: CHO-K1 cells stably expressing human TRPV4; DMEM 10% FBS, 5000 cells/well; final 0.15 μmol/L 4α-PDD
Protocol: as §1, §2
(2) In the day before the experimental day, frozen cell were thawed and washed with the culture medium (DMEM, 10% FBS, 2 mmol/L GlutaMax, 50 unit Penicillin, 50 μg/mL Streptomycin, 0.1 mmol/L Non-Essential Amino Acids, 25 mmol/L HEPES). Then cells were suspended in the culture medium. (3) The 384-well plates which hTRPV4/CHO cells were seeded at densities of 5000 cells/well in the culture medium and cultured in a CO2 incubator in the presence of 5% CO2 at 37° C. for overnight was used as assay plates. (4) The assay plate was washed with assay buffer (Hanks, 20 mmol/L HEPES, 2.5 mmol/L probenecid, pH7.4), and the buffer were remained at 20 μL/well. (5) 10 μl of dye loading buffer (3 μmol/L Fluo 4-AM, 0.03% Pluronic F-127/assay buffer) was added to each well, then the assay plate was incubated in a CO2 incubator in the presence of 5% CO2 at 37° C. for one hour (final 1 μmol/L Fluo4-AM). (6) The assay plate was washed with the assay buffer, and the buffers were remained at 20 μL/well. Then the assay plate was incubated for 10 min at room temperature. (7) 20 μL/well of diluted compound solution was dispensed to each well in the compound plate, and mixed with built-in Pipette and Mixer of the Fluorescence analysis system FLIPR TETRA (Molecular devices). (8) After incubation for 5 min, 20 μL/well of 4α-PDD solution were applied to each well of assay plate and mixed with the FLIPR TETRA (final 0.15 μmol/L 4α-PDD). (9) The fluorescent intensity was measured with FLIPR TETRA system for 5 min from the point of time addition the […], at Ex 470-495 nm, Em 515-575 nm wavelength.
as §3
as §4, with “of the above compound A” for “of the compound A”, “inhibitory activity))×100 (11) Inhibitory activity was calculated at 10 points with three fold serial dilution, in the final concentration of the compound from 10 μmol/L to 0.5 nmol/L, the IC50 value (nmol/L) was calculated by logistic approximation method. (Result)” for “inhibitory activity))×100”

[3] = Test Example 7 Metabolism stability test; assay type: in vitro ADME; conditions: 0.5 μmol/L of test compound, human liver microsomes 0.5 mg protein/mL, 37° C.
Protocol: Using commercially available pooled human hepatic microsomes, a compound of the present invention was reacted for a constant time, and a remaining rate was calculated by comparing a reacted sample and an unreacted sample, thereby, a degree of metabolism in liver was assessed.
A reaction was performed (oxidative reaction) at 37° C. for 0 minute or 30 minutes in the presence of 1 mmol/L NADPH in 0.2 mL of a buffer (50 mmol/L Tris-HCl pH 7.4, 150 mmol/L potassium chloride, 10 mmol/L magnesium chloride) containing 0.5 mg protein/mL of human liver microsomes. After the reaction, 50 μL of the reaction solution was added to 100 μL of a methanol/acetonitrile=1/1 (v/v), mixed and centrifuged at 3000 rpm for 15 minutes. The compound of the present invention in the supernatant was quantified by LC/MS/MS, and a remaining amount of the compound of the present invention after the reaction was calculated, letting a compound amount at 0 minute reaction time to be 100%. Hydrolysis reaction was performed in the absence of NADPH and glucuronidation reaction was in the presence of 5 mmol/L UDP-glucuronic acid in place of NADPH, followed by similar operations. (Result) % inhibition was shown at 0.5 μmol/L of test compound.

T1 sequence (Q9HBA0 whole entry): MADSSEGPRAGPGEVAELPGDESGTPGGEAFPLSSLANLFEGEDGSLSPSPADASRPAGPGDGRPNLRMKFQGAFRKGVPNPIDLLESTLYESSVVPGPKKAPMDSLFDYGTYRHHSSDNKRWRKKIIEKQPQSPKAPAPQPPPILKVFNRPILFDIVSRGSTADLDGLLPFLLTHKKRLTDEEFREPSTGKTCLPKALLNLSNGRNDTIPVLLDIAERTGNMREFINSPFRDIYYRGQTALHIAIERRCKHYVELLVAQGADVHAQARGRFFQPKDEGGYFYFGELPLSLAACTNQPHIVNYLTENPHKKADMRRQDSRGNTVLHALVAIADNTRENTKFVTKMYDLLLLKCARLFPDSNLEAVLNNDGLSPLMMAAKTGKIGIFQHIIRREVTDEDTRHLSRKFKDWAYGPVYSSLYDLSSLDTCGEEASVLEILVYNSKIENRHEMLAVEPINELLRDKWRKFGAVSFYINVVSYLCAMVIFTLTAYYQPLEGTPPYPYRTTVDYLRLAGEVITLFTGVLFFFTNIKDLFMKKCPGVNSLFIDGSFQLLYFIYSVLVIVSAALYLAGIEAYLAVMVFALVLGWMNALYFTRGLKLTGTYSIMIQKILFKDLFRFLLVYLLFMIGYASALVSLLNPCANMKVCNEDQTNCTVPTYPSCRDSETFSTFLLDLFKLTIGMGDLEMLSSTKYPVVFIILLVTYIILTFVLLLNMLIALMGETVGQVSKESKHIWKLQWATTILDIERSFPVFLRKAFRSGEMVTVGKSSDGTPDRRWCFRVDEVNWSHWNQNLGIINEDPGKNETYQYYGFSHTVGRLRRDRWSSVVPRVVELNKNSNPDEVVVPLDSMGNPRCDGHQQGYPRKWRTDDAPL

| IC50 (human TRPV4 [1]) [nM] | SMILES | also measured |
| --- | --- | --- |
| 26 | Cc1nc(C)c(-c2csc(Nc3ccc(C(=O)Nc4ccc(Oc5ccccc5)cc4)cn3)n2)s1 [Compound I-270] | – |
| 42 | Cc1nc(C(C)O)sc1-c1csc(Nc2ccc(OC(F)(F)F)cn2)n1 (centres unmarked) [Compound I-140] | – |
| 14 | Cc1nc(C)c(-c2csc(Nc3ccc(C(=O)Nc4cccnc4)cn3)n2)s1 [Compound I-257] | – |
| 6.4 | Cc1nc(C)c(-c2csc(Nc3ccc(C(C)Nc4ccc(Cl)cc4)cn3)n2)s1 (centres unmarked) [Compound I-188] | – |
| 6.8 | Cc1nc(C(C)O)sc1-c1csc(Nc2ccc(C(=O)Nc3ccc(C#N)cc3F)cn2)n1 (centres unmarked) [Compound I-134] | – |
| 2.5 | Cc1nc(C)c(-c2csc(Nc3ccc(CN(CC(C)C)c4ccc(Cl)cc4F)cn3)n2)s1 [Compound I-200] | – |
| 3.3 | Cc1nc(C)c(-c2csc(Nc3ccc(C(=O)NC(C)(C)C(F)(F)F)cn3)n2)s1 [Compound I-274] | – |
| 27 | CC(O)c1nc(CCO)c(-c2csc(Nc3ccc(CNc4ccc(Cl)cc4F)cn3)n2)s1 (centres unmarked) [Compound I-79] | – |
| 30 | Cc1nc(C(C)O)sc1-c1csc(Nc2ccc(CCNc3ccc(Cl)cc3F)cn2)n1 (centres unmarked) [Compound I-150] | – |
| 24 | Cc1nc(C)c(-c2csc(Nc3ccc(OCc4ccc(Cl)cc4)cn3)n2)s1 [Compound I-312] | – |
| 1.7 | Cc1nc(C)c(-c2csc(Nc3ccc(CNC4(C(F)(F)F)CCCC4)cn3)n2)s1 [Compound I-228] | – |
| 4 | COCCN(Cc1ccc(Nc2nc(-c3sc(C)nc3C)cs2)nc1)c1ccc(Cl)cc1F [Compound I-184] | – |
| 27 | Cc1nc(C)c(-c2csc(Nc3ccc(/C=C/c4ccc(Cl)cc4)cn3)n2)s1 [Compound I-54] | – |
| 14 | CC(O)c1nc(CC#N)c(-c2csc(Nc3ccc(CNc4ccc(Cl)cc4F)cn3)n2)s1 (centres unmarked) [Compound I-132] | – |

The remaining lines, values behind:

| SMILES | IC50 (human TRPV4 [1]) [nM] | also measured |
| --- | --- | --- |
| Cc1nc(C)c(-c2c[nH]c(Nc3ccc(CNc4ccc(Cl)cc4F)cn3)n2)s1 [Compound I-41] | 42 | – |
| Cc1nc(C)c(-c2csc(Nc3ccc(CNc4ccc(Cl)cc4F)cn3)n2)o1 [Compound I-43] | 39 | – |
| Cc1nc(C)c(-c2csc(Nc3ccc(C(=O)N4CCOc5ccccc54)cn3)n2)s1 [Compound I-831] | – | IC50 (human TRPV4 [2]): 2.9 nM |
| Cc1nc(C)c(-c2csc(Nc3ccc(C(=O)Cc4ccc(Cl)cc4)cn3)n2)s1 [Compound I-13] | 6.4 | – |
| Cc1nc(C)c(-c2csc(Nc3ccc(CN4[C@@H]5CC[C@H]4COC5)cn3)n2)s1 [Compound I-799] | – | IC50 (human TRPV4 [2]): 6.3 nM |
| Cc1nc(C)c(-c2csc(Nc3ccc(C(=O)N4C[C@H]5CC[C@@H](C4)O5)cn3)n2)s1 [Compound I-703] | – | IC50 (human TRPV4 [2]): 13 nM |
| Cc1nc(C)c(-c2csc(Nc3ccc(C(=O)N4[C@@H]5CC[C@H]4CSC5)cn3)n2)s1 [Compound I-843] | – | IC50 (human TRPV4 [2]): 2.6 nM |
| CC(=O)N(Cc1ccc(Nc2nc(-c3sc(C)nc3C)cs2)nc1)c1ccc(Cl)cc1F [Compound I-49] | 8.6 | – |
| CO[C@H]1C[C@H]2CC[C@@H](C1)N2C(=O)c1ccc(Nc2nc(-c3sc(C)nc3C)cs2)nc1 [Compound I-719] | – | IC50 (human TRPV4 [2]): 1.6 nM |
| Cc1nc(C)c(-c2csc(Nc3ccc(C(=O)N4[C@@H]5CC[C@H]4COC5)cn3)n2)s1 [Compound I-662] | – | IC50 (human TRPV4 [2]): 6.7 nM |
| CCN(CC)C(=O)N1C[C@H]2CC[C@@H](C1)N2C(=O)c1ccc(Nc2nc(-c3sc(C)nc3C)cs2)nc1 [Compound I-592] | – | IC50 (human TRPV4 [2]): 3.9 nM |
| Cc1nc([C@H](C)O)sc1-c1csc(Nc2ccc(COC(C(F)(F)F)C(F)(F)F)cn2)n1 [Compound I-45] | 8.1 | – |
| Cc1nc(C(C)O)sc1-c1csc(Nc2ccc(CCOc3ccc(Cl)cc3F)cn2)n1 (centres unmarked) [Compound I-6] | 52 | – |
| Cc1nc(C)c(-c2csc(Nc3ccc(S(=O)(=O)Cc4ccc(Cl)cc4)cn3)n2)s1 [Compound I-17] | 37 | – |
| Cc1nc([C@H](C)O)sc1-c1csc(Nc2ccc3c(n2)CCCC3Nc2ccc(Cl)cc2F)n1 (some centres unmarked) [Compound I-10] | 14 | – |
| CO[C@H]1C[C@H]2CC[C@@H](C1)N2C(=O)c1ccc(Nc2nc(-c3sc(C(N)=O)nc3C)cs2)nc1 [Compound I-118] | 9.1 | – |
| CC(O)c1nc(C(O)CO)c(-c2csc(Nc3ccc(CNc4ccc(Cl)cc4F)cn3)n2)s1 (centres unmarked) [Compound I-69] | – | Percent of compound remaining after 30 min incubation [3]: 106% |
| Cc1nc(C)c(-c2csc(Nc3ccc(C(=O)N4[C@@H]5CC[C@H]4COC5)c(F)n3)n2)s1 [Compound I-744] | – | IC50 (human TRPV4 [2]): 4.2 nM |
